Laboratory results taken from patent US7671085B2, “Non-steroidal farnesoid X receptor modulators and methods for the use thereof” (The Salk Institute for Biological Studies, priority 2002, dated 2010).
Entries after “also recorded” stand apart in the source; their conditions may differ.

How the values were obtained:
[1] = test system: FXR (IBABP, PLTP and MRP-2 promoters); test: transient transfection cell-based assay with natural promoters of FXR targets (IBABP, PLTP, MRP-2)
Description: For this study, the following gene promoters were used: intestinal bile acid binding protein (IBABP; see, for example, Grober et al. (1999). Identification of a bile acid-responsive element in the human ileal bile acid-binding protein gene. Involvement of the farnesoid X receptor/9-cis-retinoic acid receptor heterodimer. J Biol Chem. 274(42), 29749-54), phospholipid transfer protein (PLTP) (Urizar et al (2000). The farnesoid X-activated receptor mediates bile acid activation of phospholipid transfer protein gene expression. J Biol Chem. 275(50), 39313-7) and multidrug resistance related protein 2 (MRP-2) (Kast et al. (2002), supra), which are all well characterized targets of FXR. The natural promoters of both the IBABP and PLTP genes contain one copy of an inverted repeat with a one base spacing (IR-1) while MRP-2 contains an ER-8 element. […] The most robust activation (28-fold) was seen on the IBABP promoter. Less robust (2-3 fold) but specific activation was observed on the PLTP and MRP-2 promoters.

[2] = molecular target: T1, FXR ligand-binding domain (Homo sapiens, UniProt Q96RI1); test: FRET-based coactivator binding assay (SRC-1 peptide recruitment); format: biochemical
T1 sequence (Q96RI1 262-486 limits assumed): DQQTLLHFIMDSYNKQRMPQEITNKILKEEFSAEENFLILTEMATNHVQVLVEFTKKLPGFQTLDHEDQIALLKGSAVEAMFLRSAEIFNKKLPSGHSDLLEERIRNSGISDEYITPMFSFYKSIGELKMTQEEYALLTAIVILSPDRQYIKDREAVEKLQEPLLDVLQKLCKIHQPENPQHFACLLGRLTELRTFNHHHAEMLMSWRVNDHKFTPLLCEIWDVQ
Description: To determine if the compounds identified as ligands could promote the association of FXR with co-activators in vitro, a fluorescence resonance energy transfer (FRET)-based coactivator binding assay was employed (see, for example, Makishima et al. (1999), supra, Urizar et al. (2002). A natural product that lowers cholesterol as an antagonist ligand for FXR. Science. 296(5573), 1703-6). This assay relies on an agonist-induced interaction between the nuclear receptor and its coactivator bringing two fluorogenic partners together resulting in the nuclear receptor ligand-dependent FRET.

[3] = molecular target: T2, FXR (Homo sapiens, UniProt Q96RI1); test: cell-based FXR transcription assay, FXR responsive promoter linked to luciferase reporter; details: for RE^a: cell-based FXR reporter assay, footnote a not given; for FXR activation, in words: cell-based reporter assay, SAR discussion
T2 construct: using a full length FXR on a natural response element; expressed in transfected cells
T2 sequence (Q96RI1 1-486): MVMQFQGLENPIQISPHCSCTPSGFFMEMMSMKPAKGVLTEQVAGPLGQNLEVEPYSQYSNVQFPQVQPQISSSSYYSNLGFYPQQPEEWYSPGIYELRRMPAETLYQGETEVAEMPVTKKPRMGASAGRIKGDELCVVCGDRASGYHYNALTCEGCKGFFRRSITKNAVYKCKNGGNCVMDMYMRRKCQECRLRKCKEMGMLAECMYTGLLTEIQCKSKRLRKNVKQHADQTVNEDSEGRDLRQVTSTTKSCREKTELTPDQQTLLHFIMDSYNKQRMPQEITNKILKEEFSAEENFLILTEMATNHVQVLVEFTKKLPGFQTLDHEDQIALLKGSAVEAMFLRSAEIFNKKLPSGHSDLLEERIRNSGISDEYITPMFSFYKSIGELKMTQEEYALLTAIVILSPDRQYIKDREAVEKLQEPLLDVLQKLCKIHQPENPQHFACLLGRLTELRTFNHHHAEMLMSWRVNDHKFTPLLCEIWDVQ
Summary of the method: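 Cells co-transfected with full-length FXR and a luciferase reporter driven by a natural response element on a minimal promoter. Compound exposure ≈10 μM for 18 h before washing and luciferase read-out, in 384-well format, with CDCA as reference activator. EC50 derived from transcriptional activity.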

[4] = test system: FXR target genes SHP, MRP-2, BSEP and PLTP; test: Northern blot of FXR target genes in HEPG2-FXR cells; format: cell-based; details: for induction of FXR target genes, in words: SHP, MRP-2, BSEP, PLTP; for concentration for maximal activation of FXR target genes: overnight treatment
Procedure: HepG2 or HT29-derived cell lines were typically cultured in medium containing superstripped FBS for 24 hr before the addition of a ligand or DMSO (vehicle) for an additional 24-48 hr. Total RNA was isolated using TRIzol reagent and was resolved (10 μg/lane) on a 1% agarose, 2.2 M formaldehyde gel, transferred to a nylon membrane (Hybond N^+; Amersham Biosciences, Inc.), and cross-linked to the membrane with UV light.
cDNA probes were radiolabeled with [α-^32P]dCTP using the highprime labeling kit (Amersham Biosciences, Inc.). Membranes were hybridized using the QuikHyb hybridization solution (Stratagene, La Jolla, Calif.) according to the manufacturer's protocol. Blots were normalized for variations of RNA loading by hybridization to a control probe, either, 18 S ribosomal cDNA, or the ribosomal protein 36B4. The RNA levels were quantitated using a PhosphorImager (ImageQuant software; Molecular Dynamics, Inc., Sunnyvale, Calif.) in addition to being exposed to X-ray film.
Total RNA was isolated and the expression of the FXR target genes SHP, MRP-2, BSEP and PLTP was measured by Northern blot analysis. […]

Row | Structure (SMILES) | concentration of maximum efficacy [1] [µM] | EC50 [2] [nM] | RE^a [3] | FXR activation, in words [3] | induction of FXR target genes, in words [4] | concentration for maximal activation of FXR target genes [4] [µM] | induction of FXR target genes, in words ([4]; listed as fexaramine)
1 | COC(=O)C=Cc1cccc(N(Cc2ccc(C=Cc3ccccc3)cc2)C(=O)C2CCCCC2)c1 [Compound 121] | 1 | ~255 | 1.55 | excellent activity; also recorded: among the most active | strong induction | 10 | 
2 | COC(=O)/C=C/c1cccc(N(Cc2ccc(-c3ccc4c(c3)OCO4)cc2)C(=O)C2CCCCC2)c1 [Compound 244] | 1 | 222 | 1.90 | excellent activity | strong induction | 10 | 
3 | COC(=O)/C=C/c1cccc(N(Cc2ccc(-c3ccc(N(C)C)cc3)cc2)C(=O)C2CCCCC2)c1 [Compound 259] | 1 | 255 | 1.72 | excellent activity |  | 10 | most effective inducer of target genes; also recorded: matched GW4064 induced activation of the BSEP and MRP-2 genes
